# In patent publication US20250352555A1, “METHOD OF INCREASING IMMUNE CELL ACTIVATION AND/OR TREATING CANCER USING DIBENZOXAZEPINONES” (VASCULAR THERAPEUTICS PTY LTD, priority 2022, published 2025):
# Experiments:
# A375 cells = assay: Migration assay (scratch), A375; assay type: cell-based, human; conditions: 1 μM, 24 h, with greater potency than SCH772984
# Method: Migration assays. Cells were grown in medium containing 10% FBS in 6-well plates. The following day the cells were scratched with a sterile toothpick, washed with PBS, and incubated in medium containing 10% FBS and vehicle, BT2 or SCH772984 at 1 μM. At 0, 24 h and 48 h the cells were photographed under a 4× objective using an Olympus CKX41 microscope. To assess the effect of BT2 on melanoma cell migration, A375 and MeWo cells were incubated with 1 μM of BT2 or SCH772984, and A375 and MeWo migration into the denuded zone was quantified after 24 or 48 h, respectively.
# [1] = test system: human melanoma (MDA-MB-435 cells); assay: Melanoma growth in SCID mice bearing MDA-MB-435 xenograft; assay type: in vivo, mouse; conditions: 5 days-on/2 days-off; for tumor growth (volume): from Day 16
# Method: In experiments with SCID mice, 5 week old CB17/lcr-Prkdcscid/lcrlcoCrl mice (sourced from Charles River Laboratories, USA) were inoculated s.c. with human MDA-MB-435 cells (2.5×10^6 cells/animal in 100 μl PBS) in the third mammary fat pad on Day 0. These cells were also sourced from ATCC. BT2 was suspended at 9.6 mg/ml in vehicle (saline containing 0.5% (v/v) Tween 80 and 0.01% (v/v) DMSO) and sonicated. Vehicle or BT2 were administered i.p. or intratumorally (i.t.) 20 mg/kg (i.t.) or 200 mg/kg (i.p.), once a day on a 5 days-on/2 days-off schedule. Treatment commenced on Day 16 and ended on Day 43. Tumor growth and body weight data is sourced from the animal study described in Li et al (Li et al., 2019) with the same vehicle group.
# Tumors were measured by length and width in mm twice per week for MDA-MB-435 in SCID mice and by length, width and height in mm once per day for B16F10 in C57BL/6J mice. Tumor volumes were calculated using formula V=(L×W×H×π)/6 (B16F10) or V=L×W×W/2 (MDA-MB-435). If a second tumor was detected in an animal, both tumor volumes were measured and their volumes combined. Animal protocols were approved by the Explora Biolabs' Institutional Animal Care and Use Committee (IACUC) and the UNSW Animal Care and Ethics Committee.
# BT2's ability to inhibit melanoma growth was investigated in a murine xenograft model. Immunocompromised SCID mice (C.B.17/lcr-Prkdcscid/lcrlcoCrl) bearing human melanoma (MDA-MB-435 cells, also mutant BRAF^V600E) were treated with 20 mg/kg BT2 intratumorally (i.t.) on a 5 days-on/2 days-off regime (FIG. 5A).
# To assess the effect of BT2 when delivered systemically (rather than locally) in the same immunodeficient mouse model, C.B.17 SCID mice bearing s.c. MDA-MB-435 tumors were given BT2 200 mg/kg or vehicle i.p. once a day on a 5 days-on/2 days-off schedule. Treatment commenced on Day 16 (FIG. 7A).
# p38 = assay: Western blotting time course for p38 phosphorylation, Jurkat T cells; assay type: cell-based, human; conditions: Western blot time course
# Method: Western blotting. Cells were treated with compounds and times indicated and total cell lysates were prepared in RIPA buffer. Lysates (10 μg) were resolved by SDS-PAGE and transferred to Immobilon-P polyvinylidene difluoride (PVDF) membranes (Millipore, USA).
# Membranes were blocked with 5% skim milk and incubated with rabbit monoclonal anti-c-Jun (Abcam, cat. no. ab32137; mouse, rat and human reactive) antibody, rabbit monoclonal anti-PD-1 (Abcam, cat. no. ab214421) antibody, mouse monoclonal β-actin antibody (Sigma-Aldrich, cat. no. A5316), anti-phospho-SAPK/JNK (Thr^183/Tyr^185) (98F2) (CST, cat. no. 4671) antibody, anti-phospho-p44/42 MAPK (ERK1/2) (Thr^202/Tyr^204) (D13.14.4E) (CST, cat. no. 4370) antibody, anti-phospho-p38 MAPK (Thr^180/Tyr^182) (D3F9) (CST, cat. no. 4511) antibody, anti-SAPK/JNK antibody (CST, cat. no. 9252), anti-p44/42 MAPK (ERK1/2) (137F5) antibody (CST, cat. no. 4695), anti-p38 MAPK antibody (CST, cat. no. 9212), anti-DUSP8 antibody (Abcam, cat. no. ab198175) or anti-c-MAF (BLR045F) antibody (Abcam, cat. no. ab243901). […] Chemiluminescence was detected using the Western Lightning Chemiluminescence system (Thermo Scientific, USA) and ImageQuant™ LAS 4000 biomolecular imager (GE Healthcare Life Sciences, USA). Band intensity in images generated with the LAS 4000 was quantified using NIH Image J. […]
# [2] = MDA-MB-435, 20 mg/kg i.t. once a day
compound,measurement,setting,value
"CCOC(=O)Nc1ccc2c(c1)C(=O)N(CC)c1ccccc1O2 [BT2, (10-ethyl-11-oxo-10,11-dihydro-dibenzo[b,f][1,4]oxazepin-2-yl)-carbamic acid ethyl ester]",migration into the denuded zone,A375 cells,suppressed melanoma migration
same,body weight,[1]; [2],no adverse effect on body weight
same,tumor growth (volume),[1]; [2],caused growth inhibition
same,tumor growth (volume),"[1]; MDA-MB-435, 200 mg/kg i.p. once a day",no inhibition was observed
same,levels of p38 phosphorylation,p38,no effect
